Test results published in patent US20250213547A1, “METHODS OF TREATING NEUROLOGICAL DISEASES” (priority 2022, published 2025).

What was measured:
[1] = test system: plasma 24HC; assay: Multiple rising dose study: pharmacodynamics, plasma 24HC; assay type: in vivo, human
Protocol: An 8 mL blood sample was collected to obtain plasma 24HC levels for PD analysis on day 1 and day 14 at 30 minutes pre-dose and at 30 minutes, and 1, 2, 4, 8, 12, 16, and 24 hours post-dose. The mean 24-hour area under the effect curve (AUEC24), presented as the percent change in 24HC from baseline, for doses 100, 300, and 400 mg were −46.8, −61.9, and −62.7, respectively. […] Example 7 below further describes the study's PD protocol and trial results, including safety (example 8).
Plasma 24HC collection and measurement were as described in example 5, with the exception that the 30—minute pre-dose sampling occurred on day 1, 7, 12, 13 and 14, and the 24-hour sampling occurred on day 1 and 14. Assay quality control measures, parameter and statistical analyses were performed as described in example 5. […] Subjects in the 300 mg BID and 600 mg QD cohorts discontinued treatment after day 10 due to some subjects experiencing adverse effects.

[2] = clinical; assay type: in vivo; conditions: human; for Cmax: mean
Text: The first-in-human clinical trial administered a single-rising dose and included 48 healthy men and women aged 19-55 with a body mass index between 18 kg/m2 and 30 kg/m2. […] Examples 2-5 herein further describes the trial protocol and the results, including data on the bioavailability of solution versus tablet (example 3), fed versus fasting patients (example 4), and PD data (example 5). The data obtained from this trial informed on the safe dosage range for future trials, and was included in the first-step of the modeling analysis described in example 12.
The study enrolled 48 subjects in the single rising dose study. Subjects were sorted into six cohorts and randomly assigned to treatment or placebo groups.
A prior study of soticlestat dosing in dogs guided the safety margin of minimal and maximal single dose selection for human subjects. An initial dosage of 10 mg provided a 44-fold safety margin relative to the maximum safe dosage in dogs. […] Each dose trial contained two placebo subjects. Ascending doses were tested in 2 sentinel subjects at a time to determine safety and tolerability before including the full cohort.
The analytes and internal standards were extracted by solid phase extraction or by dilution. […] Multiple analyses of pooled samples (n=6) verified intra- and inter-assay accuracy with an acceptance criteria of within 15% (CV≤15%) or 20% (CV≤20%) for the LLOQ. PK parameters were analyzed from plasma and urine concentration time data using standard non-compartmental analysis methods with Phoenix WinNonlin™ version 6.3 (Certara, Princeton, N.J. USA). All statistical analyses were performed using SAS software version 9.2 (SAS Institute Inc., Cary, N.C. USA).

[3] = Adult DEE patients (Part A/Part B): safety and tolerability; assay type: in vivo, human
Text: The third clinical trial was a randomized, double-blind, placebo controlled study. […] After the completion of Part A, 16 patients continued in Part B with open-label treatment for 60 additional days. Patients were included in the trial if they were 18-65 years of age with an established diagnosis of DEE, such as Lennox-Gastaut syndrome, Dravet syndrome, or tuberous sclerosis complex. For enrollment, patients were required to have had at least two bilateral motor seizures per month in the three months prior. In addition, during the 4-week baseline period prior to dosing, patients were required to have incurred at least one bilateral motor seizure. Exclusion criteria included abnormal ECG, degenerative eye disease, or admission to emergency care for treatment of status epilepticus that required mechanical ventilation.
Only patients having at least one bilateral seizure during the baseline study were eligible to continue. […] The range of seizure types included tonic-clonic, drop seizures, tonic, atonic, bilateral clonic, myoclonic-atonic, myotonic-tonic-clonic, and focal seizures. Aside from seizure history, subjects were also enrolled based on an establish diagnosis of DEE, such as Lennox-Gastaut syndrome (LGS) and Dravet syndrome (DS), tuberous sclerosis complex, and a history of special education or an overall intellectual quotient of <70. […] Subjects could continue taking 1-4 anti-seizure medicines (ASM), with the exception of stiripentol, during the study. […]
The safety and tolerability assessments included blood pressure, heart rate, respiratory rate, temperature, treatment-emergent adverse effects, clinical laboratory tests, electrocardiogram data, neurological and ophthalmic examination, and the Columbia-suicide severity rating scale (C-SSRS).
Patients were dosed 100 mg, 200 mg, or 300 mg BID. Dosage (mg BID) in each interval reflects the final dose during that interval. Fields showing 0 mg in days 1-10, 11-20, and 21-30 intervals are patients who were assigned to the placebo group in Part A of the study.

[4] = as above; conditions: human, in vivo, 60 days
[5] = both sexes, in vivo, po, 200 mg
[6] = both sexes, in vivo, po, 600 mg
[7] = both sexes, in vivo, po, 900 mg
[8] = both sexes, in vivo, po, 1350 mg

O=C(c1cccnc1-c1ccncc1)N1CCC(O)(Cc2ccccc2)CC1 [soticlestat]
24HC AUEC24, mean, percent change from baseline (day −1) ([1]; 100 mg QD day 1): −8.15%
24HC E24, mean, percent change from baseline (day −1) ([1]; 100 mg QD day 1): −20.9%
24HC AUEC24, mean, percent change from baseline (day −1) ([1]; 100 mg QD day 14): −46.8%
24HC E24, mean, percent change from baseline (day −1) ([1]; 100 mg QD day 14): −49.1%
24HC AUEC24, mean, percent change from baseline (day −1) ([1]; 300 mg BID day 1): −6.90%
24HC E24, mean, percent change from baseline (day −1) ([1]; 300 mg BID day 1): −10.5%
24HC AUEC24, mean, percent change from baseline (day −1) ([1]; 300 mg QD day 1): −12.7%
24HC E24, mean, percent change from baseline (day −1) ([1]; 300 mg QD day 1): −22.4%
24HC AUEC24, mean, percent change from baseline (day −1) ([1]; 300 mg QD day 14): −61.9%
24HC E24, mean, percent change from baseline (day −1) ([1]; 300 mg QD day 14): −63.8%
24HC AUEC24, mean, percent change from baseline (day −1) ([1]; 400 mg QD day 1): −11.7%
24HC E24, mean, percent change from baseline (day −1) ([1]; 400 mg QD day 1): −28.4%
24HC AUEC24, mean, percent change from baseline (day −1) ([1]; 400 mg QD day 14): −62.7%
24HC E24, mean, percent change from baseline (day −1) ([1]; 400 mg QD day 14): −65.6%
24HC AUEC24, mean, percent change from baseline (day −1) ([1]; 600 mg QD day 1): −14.0%
24HC E24, mean, percent change from baseline (day −1) ([1]; 600 mg QD day 1): −30.6%
CL renal ([2]; both sexes, in vivo): 3.83 to 10.3 mL/min
Tmax ([2]; both sexes, in vivo, po): 15 to 31.2 min
half-life ([2]; both sexes, in vivo, po): 49.2 to 430 min
Tmax ([2]; both sexes, in vivo, po, 15 mg): 15 min
Cmax ([2]; both sexes, in vivo, po, 15 mg): 43.5 ng/mL
AUC(0-inf) ([2]; both sexes, in vivo, po, 50 mg): 172 ng·h/mL
AUC(0-t) ([2]; both sexes, in vivo, po, 50 mg): 169 ng·h/mL
Tmax ([2]; both sexes, in vivo, po, 50 mg): 15 min
Vd/F ([2]; both sexes, in vivo, po, 50 mg): 1500 L
Cmax ([2]; both sexes, in vivo, po, 50 mg): 210 ng/mL
AUC(0-inf) [2, 5]: 621 ng·h/mL
AUC(0-t) [2, 5]: 563 ng·h/mL
Tmax [2, 5]: 15 min
Vd/F [2, 5]: 2240 L
Cmax [2, 5]: 571 ng/mL
Tmax [2, 6]: 31.2 min
Vd/F [2, 6]: 993 L
Cmax [2, 6]: 4550 ng/mL
AUC(0-inf) [2, 7]: 7660 ng·h/mL
AUC(0-t) [2, 7]: 7620 ng·h/mL
Vd/F [2, 7]: 1230 L
Cmax [2, 7]: 5080 ng/mL
AUC(0-inf) [2, 8]: 13500 ng·h/mL
AUC(0-t) [2, 8]: 13500 ng·h/mL
Vd/F [2, 8]: 852 L
Cmax [2, 8]: 7950 ng/mL
Vd/F ([2]; both sexes, plasma, single oral solution dose 15 mg, read-out: Vz/F, mean): 732 L
time of second smaller plasma peak post-dose ([2]; both, in vivo): approximately 10 hours
t1/2z, mean ([2]; both, in vivo, po, 15 mg): 49.2 min
t1/2z, mean ([2]; both, in vivo, po, 50 mg): 179 min
t1/2z, mean ([2]; both, in vivo, po, 200 mg): 263 min
AUC(0-t), mean ([2]; both, in vivo, po, 600 mg): 5790 ng·h/mL
AUC∞, mean ([2]; both, in vivo, po, 600 mg): 5810 ng·h/mL
t1/2z, mean ([2]; both, in vivo, po, 600 mg): 286 min
Tmax, median ([2]; both, in vivo, po, 900 mg): 30 min
t1/2z, mean ([2]; both, in vivo, po, 900 mg): 430 min
Cmax, mean ([2]; both, in vivo, po, 1350 mg): 7953 ng/mL
t1/2z, mean ([2]; both, in vivo, po, 1350 mg): 319 min
dose-proportionality slope, AUC(0-t) (log-log) ([2]; in vivo): 1.38 (1.28, 1.48)
dose-proportionality slope, AUC∞ (log-log) ([2]; in vivo): 1.42 (1.31, 1.53)
dose-proportionality slope, Cmax (log-log) ([2]; in vivo): 1.22 (1.11, 1.32)
CL/F, mean ([2]; in vivo, po, 15 mg): 689 L/h
CL/F, mean ([2]; in vivo, po, 50 mg): 549 L/h
CL/F, mean ([2]; in vivo, po, 200 mg): 355 L/h
CL/F, mean ([2]; in vivo, po, 600 mg): 145 L/h
CL/F, mean ([2]; in vivo, po, 900 mg): 124 L/h
CL/F, mean ([2]; in vivo, po, 1350 mg): 112 L/h
Upper respiratory tract infection, n participants ([3]; Part A, soticlestat (n = 14)): 2 n
Upper respiratory tract infection, n participants ([3]; Part B open-label, all (n = 16)): 1 n
Dysarthria, n participants ([3]; human, in vivo, 30 days): 3 n
Fatigue, n participants ([3]; human, in vivo, 30 days): 2 n
Headache, n participants ([3]; human, in vivo, 30 days): 2 n
Lethargy, n participants ([3]; human, in vivo, 30 days): 2 n
TEAE incidence ([3]; human, in vivo, 30 days): 71.4%
deaths ([3]; soticlestat arm): no deaths
Insomnia, n participants [4]: 3 n
Lethargy, n participants [4]: 2 n
Seizure, n participants [4]: 3 n
